Source: patent publication US20230263822A1, “MODULATION OF FACTOR 11 EXPRESSION” (Ionis Pharmaceuticals, Inc., priority 2008, published 2023)
Strand notation (5' to 3'): a small letter for the sugar, then the base; units joined by * are phosphorothioate-linked, units joined directly phosphodiester-linked; [ ] holds rarer units or linkages, { } end groups; capitals alone tell only the bases. e = 2'-O-(2-methoxyethyl) (MOE); [5mC] = 5-methylcytosine; d = 2'-deoxy (DNA)

How the values were obtained:
[1] = tested on: mouse Factor 11 mRNA; experiment: Sense-oligonucleotide antidote: Factor 11 mRNA in liver (Example 23); type: in vivo, BALB/c mice
Method: The effect of the specific sense oligonucleotide to ISIS 404071 as an antidote was tested in BALB/c mice. In a first cohort, ISIS 404071 was administered subcutaneously to BALB/c mice twice a week for three weeks at a dose of 40 mg/kg. In a second cohort, ISIS 404057 was administered subcutaneously to BALB/c mice twice a week for three weeks at a dose of 40 mg/kg. The ISIS 404071 specific antidote, ISIS 418026 ([…]; complementary to ISIS 404071), incorporated herein as SEQ ID NO: 13, was administered to both cohorts subcutaneously in a single injection of 90 mg/kg 48 hours after the final treatment of ISIS 404071 or 404057. In a third cohort, ISIS 404071 was administered subcutaneously to BALB/c mice twice a week for three weeks at a dose of 40 mg/kg. Following the last treatment of ISIS 404071, mice were injected subcutaneously injected with PBS. In a fourth cohort, ISIS 404057 was administered subcutaneously to BALB/c mice twice a week for three weeks at a dose of 40 mg/kg. Following the last treatment of ISIS 404057, mice were injected subcutaneously injected with PBS. Following antidote administration, a set of 4 mice from each cohort were sacrificed at 12 hours, 1 day, 2 days, 3 days, 7 days, and 14 days. Whole liver was collected for RNA analysis and PPP was collected for aPTT analysis.
RNA was extracted from liver tissue for real-time PCR analysis of Factor 11. Results are presented as percent inhibition of Factor 11, relative to PBS control.

[2] = tested on: mouse Factor 11 mRNA; experiment: Cross-reactive antisense inhibition of murine Factor 11 in primary mouse hepatocytes, 100 nM (Example 9); type: cell-based; conditions: ~24 hours
Method: Antisense oligonucleotides targeted to a murine factor 11 nucleic acid were tested for their effects on Factor 11 mRNA in vitro. Cultured primary mouse hepatocytes at a density of 10,000 cells per well were treated with 100 nM antisense oligonucleotide. After a treatment period of approximately 24 hours, RNA was isolated from the cells and mouse Factor 11 mRNA levels were measured by quantitative real-time PCR. Factor 11 mRNA levels were adjusted according to total RNA content, as measured by RIBOGREEN. Results are presented as percent inhibition of Factor 11, relative to untreated control cells.
The chimeric antisense oligonucleotides in Tables 16 were designed as 5-10-5 MOE gapmers. The gapmers are 20 nucleotides in length, wherein the central gap segment is comprised of 10 2′-deoxynucleotides and is flanked on both sides (in the 5′ and 3′ directions) by wings comprising 5 nucleotides each. Each nucleotide in the 5′ wing segment and each nucleotide in the 3′ wing segment has a 2′-MOE modification. The internucleoside linkages throughout each gapmer are phosphorothioate (P=S) linkages. All cytidine residues throughout each gapmer are 5-methylcytidines. “Mouse target start site” indicates the 5′-most nucleotide to which the gapmer is targeted. “Mouse target stop site” indicates the 3′-most nucleotide to which the gapmer is targeted. All the mouse oligonucleotides listed show cross-reactivity between the mouse Factor 11 mRNA (GENBANK Accession No. NM_028066.1), incorporated herein as SEQ ID NO: 6 and the human Factor 11 mRNA (GENBANK Accession No. NM_000128.3), incorporated herein as SEQ ID NO: 1. “Human Target Start Site” indicates the 5′-most nucleotide in the human mRNA (GENBANK Accession No. NM_000128.3) to which the antisense oligonucleotide is targeted. “Human Target Stop Site” indicates the 3′-most nucleotide in the human mRNA (GENBANK Accession No. NM_000128.3) to which the antisense oligonucleotide is targeted. “Number of mismatches” indicates the mismatches between the mouse oligonucleotide and the human mRNA sequence.

[3] = rat, in vivo, sc, 50 mg/kg
Method: (§1) A control group of four Sprague Dawley rats was injected subcutaneously with PBS twice per week for 6 weeks. Body weight measurements were taken before and throughout the treatment period. Urine samples were taken before the start of treatment. Three days after the last dose, urine samples were taken and the rats were sacrificed. Organ weights were measured and blood was collected for further analysis.
To evaluate the effect of kidney function, plasma concentrations of blood urea nitrogen (BUN) and creatinine were measured using an automated clinical chemistry analyzer (Hitachi Olympus AU400e, Melville, N.Y.).

[4] = rat, in vivo, sc, 50 mg/kg; remark: listed apart in the source
[5] = rat, in vivo, sc, 50 mg/kg; remark: listed apart in the source
Method: as §1
Blood obtained from all rat groups were sent to Antech Diagnostics for hematocrit (HCT), mean corpuscular volume (MCV), mean corpuscular hemoglobin (MCV), and mean corpuscular hemoglobin concentration (MCHC) measurements and analyses, as well as measurements of various blood cells, such as WBC (neutrophils, lymphocytes and monocytes), RBC, and platelets as well as hemoglobin content.

[6] = tested on: blood coagulation; experiment: PT and aPTT assay in platelet poor plasma (Example 10); type: in vivo; conditions: BALB/c mice
Method: BALB/c mice were injected with 5 mg/kg, 10 mg/kg, 25 mg/kg, or 50 mg/kg of ISIS 404057 or ISIS 404071 twice a week for 3 weeks. A control group of mice was injected with phosphate buffered saline (PBS) twice a week for 3 weeks. Mice were sacrificed 5 days after receiving the last dose. Whole liver was harvested for RNA analysis and plasma was collected for clotting analysis (PT and aPTT) and protein analysis.
Prothrombin Time (PT) and Activated Partial Thromboplastin Time (aPTT) were measured using platelet poor plasma (PPP) from mice treated with ISIS 404057 and ISIS 404071. PT and aPTT values provided in Table 18 are reported as International Normalized Ratio (INR) values. INR values for PT and aPTT were determined by dividing the PT or aPTT value for each experimental group (i.e. 5 mg/kg, 10 mg/kg, 25 mg/kg, and 50 mg/kg treatment with ISIS 404057 or ISIS 404071) by the PT or aPTT for the PBS treated group. This ratio was then raised to the power of the International Sensitivity Index (ISI) of the tissue factor used.

[7] = Collagenase-induced intracerebral hemorrhage model: hemorrhage volume, neurologic deficit score, mortality (Example 25); type: in vivo, BALB/c mice
Method: In a first cohort, ISIS 404071 was administered subcutaneously to BALB/c mice twice a week for two weeks at a dose 40 mg/kg. […] In a third cohort, ISIS 421208 ([…], 8 mismatches to murine Factor 11, incorporated herein as SEQ ID NO: 14) was administered subcutaneously to BALB/c mice twice a week for two weeks at a dose 40 mg/kg. In a fourth cohort, PBS was administered to BALB/c mice twice a week for two weeks.
Two days after receiving their final dose, all mice in all cohorts were anesthetized with […] of avertin. Next, the mice were injected at −1 mm AP, 1 mm R ML, −4 mm DV from bregma flat skull with a 10 μL Hamilton syringe containing 0.075 U collagenase (150 U/mL). Collagenase was delivered over 5 minutes and the needle was kept in place for an additional 5 minutes to prevent reflux. The mice were then analyzed for hemorrhagic size, neurologic deficit score, and mortality.
Table 37 presents the hemorrhage volume detected in mice after collagenase treatment, Table 38 presents the neurologic deficit score of the mice, and Table 39 presents the mortality rate of the mice. Neurological deficit is measured by a standard scoring system where no deficiency is zero and severe deficit is five.

[8] = 5 mg/kg twice a week for 3 weeks
[9] = 10 mg/kg twice a week for 3 weeks
[10] = 25 mg/kg twice a week for 3 weeks
[11] = 50 mg/kg twice a week for 3 weeks
[12] = 5-50 mg/kg twice a week for 3 weeks

Substance | BUN [3] [mg/dL] | Creatinine [3] [mg/dL] | ALT [4] [IU/L] | AST [4] [IU/L] | Albumin [4] | Bilirubin [4] [mg/dL] | HCT [5] [%] | MCH [5] | MCHC [5] [%] | MCV [5] | Platelets [5] | RBC [5] | WBC [5] [nL⁻¹] | hemoglobin [5] [g/dL] | lymphocytes [5] [%] | monocytes [5] [%] | neutrophils [5] [%] | other results
ISIS 418026: ISIS 404071 specific antidote, CCTCTGAAAGTGGATTACCA; complementary to ISIS 404071 (listed as DNA, chemistry not given here) |  |  |  |  |  |  |  |  |  |  |  |  |  |  |  |  |  | inhibition of Factor 11 mRNA expression in ISIS 404057 treated mice ([1]; BALB/c mice, ISIS 404057 40 mg/kg then ISIS 418026 90 mg/kg): had no effect on inhibition of Factor 11 mRNA expression
404066 (eA*eA*eT*eG*eT*d[5mC]*d[5mC]*d[5mC]*dT*dG*dA*dT*dA*d[5mC]*dA*eA*eG*e[5mC]*e[5mC]*eA; antisense) [compound 404066] |  |  |  |  |  |  |  |  |  |  |  |  |  |  |  |  |  | % Inhibition of mouse Factor 11 mRNA levels [2]: 37%
ISIS 416925: MOE gapmer, nucleobases 1275 to 1318 of SEQ ID NO: 1 (Table 8) (antisense GGTGCACAGTTTCTGGCAGG; MOE gapmer, wing and gap sizes not given here) | 7 | 5 | 102 | 20 | 5 | 13 | 8 | 2 | 4 | 5 | 8 10^3/μL | 6 | 24 | 6 | 4 | 23 | 20 | 
ISIS 416892: 3-14-3 MOE gapmer GCCCTTCATGTCTAGGTCCA (sugars from the 5' end e3 d14 e3, backbone and methylation of C not given here) | 188 | 1 | 113 | 183 | 8 | 1 | 13 | 2 | 0 | 1 | 66 10^3/μL | 12 | 68 | 14 | 18 | 58 | 92 | 
ISIS 404057: antisense oligonucleotide targeted to murine Factor 11 mRNA, TCCTGGCATTCTCGAGCATT, target start site 487 (antisense eT*e[5mC]*e[5mC]*eT*eG*dG*d[5mC]*dA*dT*dT*d[5mC]*dT*d[5mC]*dG*dA*eG*e[5mC]*eA*eT*eT) |  |  |  |  |  |  |  |  |  |  |  |  |  |  |  |  |  | Percent inhibition of mouse Factor 11 mRNA compared to PBS control ([1]; 3 days after antidote/PBS, antisense 40 mg/kg s.c. twice a week for three weeks, ISIS 418026 90 mg/kg single injection where given): 95%; PT INR [6, 8]: 1.00; aPTT INR [6, 8]: 1.07; PT INR [6, 9]: 0.94; aPTT INR [6, 9]: 1.19; PT INR [6, 10]: 1.02; aPTT INR [6, 10]: 1.27; PT INR [6, 11]: 1.00; aPTT INR [6, 11]: 1.37; PT [6, 12]: not significantly prolonged; aPTT [6, 12]: prolonged in a dose-dependent manner
404054 (eT*eA*eG*eT*eT*d[5mC]*dA*dT*dG*d[5mC]*d[5mC]*d[5mC]*dT*dT*d[5mC]*eA*eT*eG*eT*e[5mC]; antisense) [compound 404054] |  |  |  |  |  |  |  |  |  |  |  |  |  |  |  |  |  | % Inhibition of mouse Factor 11 mRNA levels [2]: 45%
ISIS 416825: 5-10-5 MOE gapmer GCCCTTCATGTCTAGGTCCA (sugars from the 5' end e5 d10 e5, backbone and methylation of C not given here) | 7 | 17 | 89 | 17 | 2 | 4 | 2 | 2 | 4 | 4 | 6 10^3/μL | 2 | 22 | 2 | 3 | 15 | 25 | 
ISIS 417003: MOE gapmer, nucleobases 1275 to 1318 of SEQ ID NO: 1 (Table 8) (antisense TGGTGCACAGTTTCTGGCAG; MOE gapmer, wing and gap sizes not given here) | 9 | 9 | 138 | 23 | 6 | 50 | 8 | 4 | 4 | 6 | 19 10^3/μL | 11 | 83 | 11 | 3 | 6 | 17 | 
ISIS 421208: TCGGAAGCGACTCTTATATG, 8 mismatches to murine Factor 11 (listed as DNA, chemistry not given here) [reference compound] |  |  |  |  |  |  |  |  |  |  |  |  |  |  |  |  |  | Hemorrhagic volume after collagenase treatment ([7]; 40 mg/kg s.c. twice a week for two weeks): 41 mm^3; Neurologic Deficit Score after collagenase treatment ([7]; 40 mg/kg s.c. twice a week for two weeks, score zero (no deficiency) to five (severe deficit)): 2.0; % mortality after collagenase treatment ([7]; ISIS oligonucleotides 40 mg/kg s.c., warfarin 2 mg/kg intraperitoneally, twice a week for two weeks): 0%
ISIS 416826: 5-10-5 MOE gapmer ATGCCCTTCATGTCTAGGTC (sugars from the 5' end e5 d10 e5, backbone and methylation of C not given here) | 25 | 6 | 611 | 104 | 6 | 115 | 7 | 3 | 4 | 6 | 11 10^3/μL | 5 | 7 | 7 | 5 | 7 | 30 | 
